Results reported in ChEMBL document CHEMBL5352456, “Isocyanides in med chem: A scaffold hopping approach for the identification of novel 4-isocyanophenylamides as potent antibacterial agents against methicillin-resistant Staphylococcusaureus” (Eur J Med Chem, 2023).
In brackets after ≈: the same amount, converted by molar mass. Activity calls are given as the source filed them. No cut-off for these calls is given here.

What was measured:
[1] = test system: Staphylococcus aureus; assay: Anti-biofilm activity in Staphylococcus aureus ATCC 6538 assessed as inhibition of biofilm formation upto 128 uM measured for 24 hrs by MTT assay; format: functional, organism-based
[2] = test system: Staphylococcus aureus; assay: Antibacterial activity against Staphylococcus aureus ATCC 6538 assessed as reduction in microbial growth measured for 16 to 20 hrs by microdilution assay; format: functional; conditions: time 16-20 hrs
[3] = test system: Staphylococcus aureus; assay: Antibacterial activity against Staphylococcus aureus ATCC 25923 assessed as reduction in microbial growth measured for 16 to 20 hrs by microdilution assay; format: functional; conditions: time 16-20 hrs
[4] = test system: Staphylococcus aureus; assay: Antibacterial activity against Staphylococcus aureus ATCC 29213 assessed as reduction in microbial growth measured for 16 to 20 hrs by microdilution assay; format: functional; conditions: time 16-20 hrs
[5] = test system: Staphylococcus aureus; assay: Antibacterial activity against methicillin-resistant Staphylococcus aureus ATCC 43300 assessed as reduction in microbial growth measured for 16 to 20 hrs by microdilution assay; format: functional; conditions: time 16-20 hrs
[6] = test system: Staphylococcus aureus; assay: Antibacterial activity against methicillin-resistant Staphylococcus aureus ATCC 33592 assessed as reduction in microbial growth measured for 16 to 20 hrs by microdilution assay; format: functional; conditions: time 16-20 hrs
[7] = test system: Staphylococcus epidermidis; assay: Antibacterial activity against Staphylococcus epidermidis ATCC 35984 assessed as reduction in microbial growth measured for 16 to 20 hrs by microdilution assay; format: functional; conditions: time 16-20 hrs
[8] = test system: Staphylococcus epidermidis; assay: Antibacterial activity against Staphylococcus epidermidis ATCC 12228 assessed as reduction in microbial growth measured for 16 to 20 hrs by microdilution assay; format: functional; conditions: time 16-20 hrs
[9] = test system: Staphylococcus epidermidis; assay: Antibacterial activity against Staphylococcus epidermidis ATCC 49134 assessed as reduction in microbial growth measured for 16 to 20 hrs by microdilution assay; format: functional; conditions: time 16-20 hrs
[10] = test system: Staphylococcus aureus; assay: Antibacterial activity against methicillin-resistant Staphylococcus aureus ATCC 43300 assessed as reduction in microbial growth by microdilution assay; format: functional
[11] = test system: Clavibacter michiganensis; assay: Antibacterial activity against Clavibacter michiganensis assessed as inhibition of bacterial growth; format: functional
[12] = test system: HaCaT; assay: Cytotoxicity against human HaCaT cells assessed as reduction in cell viability measured at 64 to 128 uM measured for 24 hrs by MTT assay; format: toxicity, cell-based; conditions: dose 64-128 µM
[13] = test system: Staphylococcus aureus; assay: Bactericidal activity against methicillin-resistant Staphylococcus aureus ATCC 43300 measured for 24 hrs by time kill assay; format: functional, organism-based
[14] = test system: HaCaT; assay: Cytotoxicity against human HaCaT cells assessed as reduction in cell viability measured at 128 uM measured for 24 hrs by MTT assay; format: toxicity, cell-based
[15] = test system: Klebsiella pneumoniae; assay: Antibacterial activity against Klebsiella pneumoniae ATCC 700603 assessed as inhibition of bacterial growth measured for 16 to 20 hrs by microdilution assay; format: functional; conditions: time 16-20 hrs
[16] = test system: Pseudomonas aeruginosa; assay: Antibacterial activity against Pseudomonas aeruginosa ATCC 10145 assessed as inhibition of bacterial growth measured for 16 to 20 hrs by microdilution assay; format: functional; conditions: time 16-20 hrs
[17] = test system: Escherichia coli; assay: Antibacterial activity against Escherichia coli ATCC 25922 assessed as inhibition of bacterial growth measured for 16 to 20 hrs by microdilution assay; format: functional; conditions: time 16-20 hrs
[18] = test system: Staphylococcus aureus; assay: Bactericidal activity against methicillin-resistant Staphylococcus aureus ATCC 43300 incubated for 24 hrs by time kill assay; format: functional
[19] = test system: Staphylococcus aureus; assay: Additive antibacterial activity against methicillin-resistant Staphylococcus aureus assessed as fractional inhibitory concentration index in presence of tetracycline by checker board method; format: functional
[20] = test system: Staphylococcus aureus; assay: Resistance development in methicillin-resistant Staphylococcus aureus ATCC 43300 assessed as fold increase in MIC after 10 passage; format: functional
[21] = test system: Staphylococcus aureus; assay: Antibacterial activity against Staphylococcus aureus ATCC 6538 assessed as reduction in cell surface hydrophobicity; format: functional, organism-based
[22] = test system: Staphylococcus aureus; assay: Induction of cell membrane permeability in Staphylococcus aureus ATCC 6538; format: functional, organism-based
[23] = test system: Staphylococcus aureus; assay: Anti-biofilm activity in Staphylococcus aureus ATCC 6538 assessed as inhibition of biofilm formation at 16 uM measured for 24 hrs by MTT assay; format: functional; parameters: scale not given: the % may be the effect or the level left
[24] = test system: Staphylococcus aureus; assay: Anti-biofilm activity in Staphylococcus aureus ATCC 6538 assessed as inhibition of biofilm formation at 128 uM measured for 24 hrs by MTT assay; format: functional; parameters: scale not given: the % may be the effect or the level left
[25] = test system: Osteoblast; assay: Cytotoxicity against human Osteoblast cells assessed as reduction in cell viability measured at 64 to 128 uM measured for 24 hrs by MTT assay; format: toxicity, cell-based; conditions: dose 64-128 µM
[26] = test system: Osteoblast; assay: Cytotoxicity against human Osteoblast cells assessed as reduction in cell viability measured at 128 uM measured for 24 hrs by MTT assay; format: toxicity, cell-based
[27] = Metabolic stability in rat liver microsome assessed as parent compound remaining at 50 uM incubated for 1 hr in presence of NADPH regenerating system and GSH by LC-UV analysis; format: ADME; conditions: liver microsomes, read-out: Stability
[28] = Metabolic stability in human plasma assessed as parent compound remaining at 50 uM incubated for 60 mins by LC-UV analysis; format: ADME, cell-free; conditions: read-out: Stability
[29] = test system: Staphylococcus aureus; assay: Additive antibacterial activity against methicillin-resistant Staphylococcus aureus assessed as fractional inhibitory concentration index in presence of ciprofloxacin by checker board method; format: functional
[30] = Metabolic stability in human liver microsome assessed as parent compound remaining at 50 uM incubated for 1 hr in presence of NADPH regenerating system and GSH by LC-UV analysis; format: ADME; conditions: liver microsomes, read-out: Stability
[31] = Metabolic stability in human liver microsome assessed as half life at 5 uM incubated for 1 hr in presence of NADPH regenerating system and GSH by LC-UV analysis; format: ADME; conditions: liver microsomes
[32] = Metabolic stability in human liver microsome assessed as intrinsic clearance at 5 uM incubated for 1 hr in presence of NADPH regenerating system and GSH by LC-UV analysis; format: ADME; conditions: liver microsomes, read-out: CLH
[33] = test system: Bacillus anthracis; assay: Antibacterial activity against Bacillus anthracis assessed as inhibition of bacterial growth; format: functional
[34] = test system: Staphylococcus aureus; assay: Antibacterial activity against Staphylococcus aureus assessed as inhibition of bacterial growth; format: functional
[35] = test system: Klebsiella pneumoniae; assay: Antibacterial activity against Klebsiella pneumoniae assessed as inhibition of bacterial growth; format: functional
[36] = test system: Pseudomonas aeruginosa; assay: Antibacterial activity against Pseudomonas aeruginosa assessed as inhibition of bacterial growth; format: functional
[37] = test system: Acinetobacter baumannii; assay: Antibacterial activity against Acinetobacter baumannii assessed as inhibition of bacterial growth; format: functional
[38] = test system: Clostridium tetani; assay: Antibacterial activity against Clostridium tetani assessed as inhibition of bacterial growth; format: functional

Row | SMILES | MIC [2] | MIC [3] | MIC [4] | MIC [5] | MIC [6] | MIC [7] | MIC [8] | MIC [9] | MIC [15] | MIC [16] | MIC [17] | further results
1 | COc1cc(Cc2cnc(N)nc2N)cc(OC)c1OC |  |  |  |  |  |  |  |  |  |  |  | Activity [1]: inactive
2 | O=C(O)c1cn(C2CC2)c2cc(N3CCNCC3)c(F)cc2c1=O [CIPROFLOXACIN] | 0.38 µM | 0.75 µM | 0.75 µM | 0.75 µM | 0.75 µM | 0.19 µM | 0.38 µM | 0.38 µM |  |  |  | MIC [10]: 1 µM
3 | [C-]#[N+]C(=C\c1ccc(O)cc1)/C(=C/c1ccc2c(c1)CCC(C)(C)O2)[N+]#[C-] |  |  |  |  |  |  |  |  |  |  |  | MIC [11]: 0.87 µM (≈ 0.31 µg/mL)
4 | [C-]#[N+]c1ccc(/C=C/c2ccccc2)cc1 | 8 µM | 4 µM | 8 µM | 8 µM | 8 µM | 1 µM | 2 µM | 1 µM |  |  |  | Activity [12]: Non-Toxic; Activity [13]: Active; Activity [14]: < 70%
5 | [C-]#[N+]c1ccc(NC(=O)COc2ccccc2)cc1 | 8 µM | 2 µM | 8 µM | 2 µM | 4 µM | 0.25 µM | 0.5 µM | 0.25 µM | ≥ 64 µM | ≥ 64 µM | ≥ 64 µM | Activity [12]: Non-Toxic; Activity [18]: >=99.9%; Activity [13]: Active; fractional inhibitory concentration index (FICI) [19]: 0.75; fold change (FC) [20]: >4; MIC [10]: 4 µM; Activity [21]: inactive; Activity [22]: Active; Activity [23]: 10%; Activity [24]: 94%; Activity [1]: inactive; Activity [25]: Non-Toxic; Activity [14]: < 70%; Activity [26]: > 70%
6 | [C-]#[N+]c1ccc(C(=O)NCc2ccccc2)cc1 | > 8 µM | > 8 µM | > 8 µM |  |  |  |  |  | ≥ 64 µM | ≥ 64 µM | ≥ 64 µM | remaining at 1 h, 50 µM [27]: 29%; remaining at 1 h, 50 µM [28]: 91%
7 | [C-]#[N+]c1ccc(NC(=O)Cc2cccc(Cl)c2)cc1 | 8 µM | 2 µM | 8 µM | 4 µM | 4 µM | 0.25 µM | 0.5 µM | 0.25 µM | ≥ 64 µM | ≥ 64 µM | ≥ 64 µM | Activity [12]: Non-Toxic; Activity [18]: >=99.9%; Activity [13]: Active; fractional inhibitory concentration index (FICI) [19]: 0.75; fractional inhibitory concentration index (FICI) [29]: 0.75; fold change (FC) [20]: >4; MIC [10]: 4 µM; Activity [21]: inactive; Activity [22]: Active; Activity [23]: 10%; Activity [24]: 94%; Activity [1]: inactive; Activity [25]: Non-Toxic; Activity [26]: > 70%; remaining at 1 h, 50 µM [27]: 53%; remaining at 1 h, 50 µM [30]: 82%; remaining at 1 h, 50 µM [28]: > 99%; half-life at 5 µM [31]: 26.2 min; microsomal CLint at 5 µM [32]: 24.4 µL/min/mg
8 | [C-]#[N+]c1ccc(NC(=O)CCc2ccc(Br)cc2)cc1 | 8 µM | 8 µM | 8 µM | 8 µM | 8 µM | 2 µM | 2 µM | 2 µM | ≥ 64 µM | ≥ 64 µM | ≥ 64 µM | 
9 | [C-]#[N+]c1ccc(NC(=O)Cc2ccc(OC)cc2)cc1 | 8 µM | 4 µM | 8 µM | 8 µM | 8 µM | 2 µM | 2 µM | 2 µM | ≥ 64 µM | ≥ 64 µM | ≥ 64 µM | 
10 | [C-]#[N+]c1ccc(NC(=O)CCc2ccccc2)cc1 | 8 µM | 4 µM | 8 µM | 8 µM | > 8 µM | 1 µM | 2 µM | 2 µM | ≥ 64 µM | ≥ 64 µM | ≥ 64 µM | 
11 | [C-]#[N+]/C(Cl)=C/C1(OC(C)=O)C(=O)Nc2ccccc21 (stereo not drawn) |  |  |  |  |  |  |  |  |  |  |  | MIC [33]: 0.7 µM (≈ 0.194 µg/mL); MIC [34]: 0.18 µM (≈ 0.0498 µg/mL); MIC [35]: 0.7 µM (≈ 0.194 µg/mL)
12 | [C-]#[N+]c1ccc(NC(=O)c2ccncc2)cc1 | > 8 µM | > 8 µM | > 8 µM |  |  |  |  |  | ≥ 64 µM | ≥ 64 µM | ≥ 64 µM | remaining at 1 h, 50 µM [27]: 29%; remaining at 1 h, 50 µM [28]: > 99%
13 | [C-]#[N+]c1ccc(NC(=O)Cc2ccc(Cl)cc2)cc1 | 8 µM | 2 µM | 8 µM | 4 µM | 8 µM | 0.25 µM | 0.5 µM | 0.25 µM | ≥ 64 µM | ≥ 64 µM | ≥ 64 µM | 
14 | [C-]#[N+]C(=C)[C@@](Cc1ccc(OC)cc1)([N+]#[C-])[C@@H]1C[C@@H](OC(=O)CO)CC[C@@H]1O |  |  |  |  |  |  |  |  |  |  |  | MIC [36]: 0.52 µM (≈ 0.2 µg/mL); MIC [37]: 0.52 µM (≈ 0.2 µg/mL)
15 | [C-]#[N+]C(=C\c1ccc(O)cc1)/C(=C/c1ccc(O)cc1)[N+]#[C-] [XANTOCILLIN] |  |  |  |  |  |  |  |  |  |  |  | MIC [36]: 0.69 µM (≈ 0.199 µg/mL); MIC [37]: 0.25 µM (≈ 0.0721 µg/mL); MIC [38]: 0.69 µM (≈ 0.199 µg/mL)
16 | [C-]#[N+]c1ccc(NC(=O)Cc2ccccc2)cc1 | > 8 µM | 8 µM | > 8 µM | > 8 µM | > 8 µM | 1 µM | 2 µM | 1 µM | ≥ 64 µM | ≥ 64 µM | ≥ 64 µM | remaining at 1 h, 50 µM [27]: 20%; remaining at 1 h, 50 µM [28]: > 99%
